Data published in patent publication US8772480B2, “Inhibitors of PI3 kinase and/or mTOR” (priority 2009, dated 2014).

Legend:
[1] = molecular target: PI3Kα (Homo sapiens (Human), UniProt P42336); conditions: read-out: PI3Kα AlphaScreen ® Ki
[2] = system: phosphorylation of Akt at Serine 473 in U87 MG cells; test: cells; conditions: Homo sapiens, U-87 MG, 2 h, read-out: U87Cell IC50, pAkt (Ser 473), U87 MG cells, two hours with compound

Sequence of PI3Kα (P42336 whole entry): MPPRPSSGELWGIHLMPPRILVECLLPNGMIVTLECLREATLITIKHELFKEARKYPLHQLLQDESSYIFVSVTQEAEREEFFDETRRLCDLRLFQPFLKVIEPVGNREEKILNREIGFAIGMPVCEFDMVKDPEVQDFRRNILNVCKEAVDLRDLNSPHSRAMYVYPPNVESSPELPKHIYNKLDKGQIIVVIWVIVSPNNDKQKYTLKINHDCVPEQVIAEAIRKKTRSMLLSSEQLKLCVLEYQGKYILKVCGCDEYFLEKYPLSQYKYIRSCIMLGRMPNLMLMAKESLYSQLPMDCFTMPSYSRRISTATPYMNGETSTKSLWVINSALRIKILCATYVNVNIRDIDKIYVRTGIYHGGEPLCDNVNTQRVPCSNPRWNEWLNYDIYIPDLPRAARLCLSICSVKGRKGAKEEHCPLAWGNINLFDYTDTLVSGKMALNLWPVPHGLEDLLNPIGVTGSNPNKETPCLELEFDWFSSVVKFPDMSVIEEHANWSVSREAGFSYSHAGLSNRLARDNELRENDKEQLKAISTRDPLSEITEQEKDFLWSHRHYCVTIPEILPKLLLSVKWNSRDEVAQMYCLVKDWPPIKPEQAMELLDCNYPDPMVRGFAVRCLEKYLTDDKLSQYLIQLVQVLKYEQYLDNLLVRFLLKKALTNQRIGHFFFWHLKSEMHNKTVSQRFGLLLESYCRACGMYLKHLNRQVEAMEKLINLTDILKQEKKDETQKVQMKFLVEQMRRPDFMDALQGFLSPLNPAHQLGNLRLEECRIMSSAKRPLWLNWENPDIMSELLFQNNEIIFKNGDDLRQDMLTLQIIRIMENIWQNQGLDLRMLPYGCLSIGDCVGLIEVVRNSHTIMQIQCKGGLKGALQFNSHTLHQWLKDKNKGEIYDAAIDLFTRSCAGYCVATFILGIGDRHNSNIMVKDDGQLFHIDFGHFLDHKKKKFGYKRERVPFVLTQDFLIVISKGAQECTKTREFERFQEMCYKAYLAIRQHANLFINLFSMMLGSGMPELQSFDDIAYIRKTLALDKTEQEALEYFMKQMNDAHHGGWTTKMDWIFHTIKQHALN
Sequence of PI3Kα (P27986 whole entry partner): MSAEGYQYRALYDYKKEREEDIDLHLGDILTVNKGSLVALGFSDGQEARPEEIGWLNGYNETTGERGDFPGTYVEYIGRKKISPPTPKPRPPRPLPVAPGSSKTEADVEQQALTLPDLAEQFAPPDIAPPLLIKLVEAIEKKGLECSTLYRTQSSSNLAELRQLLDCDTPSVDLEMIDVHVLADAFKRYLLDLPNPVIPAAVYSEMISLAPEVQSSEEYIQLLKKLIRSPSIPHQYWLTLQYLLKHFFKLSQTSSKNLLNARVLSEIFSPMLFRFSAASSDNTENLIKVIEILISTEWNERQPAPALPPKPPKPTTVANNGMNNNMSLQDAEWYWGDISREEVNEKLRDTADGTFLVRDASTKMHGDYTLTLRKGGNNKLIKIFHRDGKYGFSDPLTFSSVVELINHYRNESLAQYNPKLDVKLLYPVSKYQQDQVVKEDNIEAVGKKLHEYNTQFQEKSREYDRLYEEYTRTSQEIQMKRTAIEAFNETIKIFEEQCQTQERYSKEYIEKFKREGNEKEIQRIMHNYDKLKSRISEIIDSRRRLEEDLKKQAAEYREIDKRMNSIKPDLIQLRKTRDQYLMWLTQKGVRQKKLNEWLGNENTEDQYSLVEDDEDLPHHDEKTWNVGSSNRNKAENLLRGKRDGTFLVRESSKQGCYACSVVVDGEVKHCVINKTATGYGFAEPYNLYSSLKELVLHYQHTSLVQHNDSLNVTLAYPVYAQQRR

Cc1nc(-c2cc(Cc3ccc(S(C)(=O)=O)cc3)cnc2Nc2ccc(N)nc2)c2nc[nH]c2n1 [Example 106, N5-(3-(2-methyl-9H-purin-6-yl)-5-(4-(methylsulfonyl)benzyl)pyridin-2-yl)pyridine-2,5-diamine]
Ki [1]: 12 nM
IC50 [2]: 140 nM

COc1ccc(Nc2nc3ccccc3cc2-c2nc(C)nc3[nH]cnc23)cn1 [Example 113, N-(6-Methoxypyridin-3-yl)-3-(2-Methyl-9H-Purin-6-yl)Quinolin-2-Amine]
Ki [1]: 38 nM
IC50 [2]: > 10000 nM

COc1ccc(Nc2ncc(N3CC[C@H](O)C3)cc2-c2nc(C)nc3[nH]cnc23)cn1 [Example 205, (3S)-1-(6-((6-Methoxy-3-Pyridinyl)Amino)-5-(2-Methyl-9H-Purin-6-yl)-3-Pyridinyl)-3-Pyrrolidinol]
Ki [1]: 47 nM
IC50 [2]: 384 nM

COc1ncc(Nc2ncc([C@@H](C)N3CCN(S(C)(=O)=O)CC3)cc2-c2nc(C)nc(N)n2)cc1C(C)C [Example 302, (R)-4-(2-(5-Isopropyl-6-Methoxypyridin-3-Ylamino)-5-(1-(4-(Methylsulfonyl)Piperazin-1-yl)Ethyl)Pyridin-3-yl)-6-Methyl-1,3,5-Triazin-2-Amine]
Ki [1]: 24 nM
IC50 [2]: 203 nM

Cc1nc(N)nc(-c2cc(CN3CCN(S(C)(=O)=O)CC3)cnc2Nc2cnc3c(c2)ncn3C)n1 [Example 203, N-(3-(4-Amino-6-Methyl-1,3,5-Triazin-2-yl)-5-((4-(Methylsulfonyl)Piperazin-1-yl)Methyl)Pyridin-2-yl)-3-Methyl-3H-Imidazo[4,5-B]Pyridin-6-Amine]
Ki [1]: 16 nM
IC50 [2]: 562 nM

COc1ccc(Nc2ncc(C(O)c3cc(Br)ccc3S(=O)(=O)N(C)C)cc2-c2nc(C)nc(N)n2)cn1 (centres unmarked) [Example 235, 2-((5-(4-Amino-6-Methyl-1,3,5-Triazin-2-yl)-6-(6-Methoxypyridin-3-Ylamino)Pyridin-3-yl)(Hydroxy)Methyl)-4-Bromo-N,N-Dimethylbenzenesulfonamide]
Ki [1]: 23 nM
IC50 [2]: > 10000 nM

COc1ccc(Nc2ncc(N3CCC[C@H]3CO)cc2-c2nc(C)nc3[nH]cnc23)cn1 [Example 100, ((2S)-1-(6-(6-Methoxypyridin-3-Ylamino)-5-(2-Methyl-9H-Purin-6-yl)Pyridin-3-yl)Pyrrolidin-2-yl)Methanol]
Ki [1]: 29 nM
IC50 [2]: 192 nM

Cc1cncc(Nc2ncccc2-c2nc(C)nc(N)n2)c1 [Example 174, 4-Methyl-6-(2-(5-Methylpyridin-3-Ylamino)Pyridin-3-yl)-1,3,5-Triazin-2-Amine]
Ki [1]: 455 nM
IC50 [2]: > 10000 nM

COc1cc(Nc2ncc(C(C)(C)O)cc2-c2nc(C)nc(N)n2)cnc1OC [Example 350, 2-(5-(4-Amino-6-Methyl-1,3,5-Triazin-2-yl)-6-(5,6-Dimethoxypyridin-3-Ylamino)Pyridin-3-yl)Propan-2-ol]
Ki [1]: 19 nM
IC50 [2]: 7 nM

COc1ncc(Nc2ncc(C(C)(C)C(=O)O)cc2-c2nc(C)nc(N)n2)cc1F [Example 346, 2-(5-(4-Amino-6-Methyl-1,3,5-Triazin-2-yl)-6-(5-Fluoro-6-Methoxypyridin-3-Ylamino)Pyridin-3-yl)-2-Methylpropanoic Acid]
Ki [1]: 377 nM
IC50 [2]: > 10000 nM

COc1ccc(Nc2ncc([C@H](O)C(F)(F)F)cc2-c2nc(C)nc(N)n2)cn1 [Example 323, (S)-1-(5-(4-amino-6-methyl-1,3,5-triazin-2-yl)-6-(6-methoxypyridin-3-ylamino)pyridin-3-yl)-2,2,2-trifluoroethanol]
Ki [1]: 34 nM
IC50 [2]: 46 nM

COc1ncc(Nc2ncc([C@@H](C)N3CCN(S(C)(=O)=O)C[C@@H]3C)cc2-c2cc(N)nc(C)n2)cc1F [Example 306, 6-(2-((5-fluoro-6-methoxy-3-pyridinyl)amino)-5-((1R)-1-((2S)-2-methyl-4-(methylsulfonyl)-1-piperazinyl)ethyl)-3-pyridinyl)-2-methyl-4-pyrimidinamine]
Ki [1]: 1 nM
IC50 [2]: 3 nM

COCCNC(=O)c1cnc(Nc2ccc(OC)nc2)c(-c2nc(C)nc(N)n2)c1 [Example 153, 5-(4-Amino-6-Methyl-1,3,5-Triazin-2-yl)-N-(2-Methoxyethyl)-6-((6-Methoxy-3-Pyridinyl)Amino)-3-Pyridinecarboxamide]
Ki [1]: 21 nM
IC50 [2]: 110 nM

CC(=O)Nc1ccc(Nc2ncc(CN3CCN(S(C)(=O)=O)CC3)cc2-c2nc(C)nc(N)n2)cn1 [Example 196, N-(5-(3-(4-Amino-6-Methyl-1,3,5-Triazin-2-yl)-5-((4-(Methylsulfonyl)Piperazin-1-yl)Methyl)Pyridin-2-Ylamino)Pyridin-2-yl)Acetamide]
Ki [1]: 52 nM
IC50 [2]: 322 nM

COc1ccc(Nc2ncc(CN3CCN(S(C)(=O)=O)CC3)cc2-c2ncnc(C)n2)cn1 [Example 34, N-(6-methoxypyridin-3-yl)-3-(4-methyl-1,3,5-triazin-2-yl)-5-((4-(methylsulfonyl)piperazin-1-yl)methyl)pyridin-2-amine]
Ki [1]: 1580 nM
IC50 [2]: > 10000 nM

COc1ccc(Nc2ncc(CNc3ccncc3)cc2-c2nc(C)nc3[nH]cnc23)cn1 [Example 81, N-(6-methoxypyridin-3-yl)-3-(2-methyl-9H-purin-6-yl)-5-((pyridin-4-ylamino)methyl)pyridin-2-amine]
Ki [1]: 42 nM
IC50 [2]: 509 nM

COc1ccc(Nc2nc(N3CCCC3)ncc2-c2nc(C)nc(N)n2)cn1 [Example 122, 4-(4-(6-methoxypyridin-3-ylamino)-2-(pyrrolidin-1-yl)pyrimidin-5-yl)-6-methyl-1,3,5-triazin-2-amine]
Ki [1]: 51 nM
IC50 [2]: 725 nM

COc1ncc(Nc2ncc([C@@H](C)N3CCN(S(C)(=O)=O)C[C@@H]3C)cc2-c2nc(C)nc3[nH]cnc23)cc1F [Example 295, N-(5-Fluoro-6-Methoxypyridin-3-yl)-5-((R)-1-((S)-2-Methyl-4-(Methylsulfonyl)Piperazin-1-yl)Ethyl)-3-(2-Methyl-9H-Purin-6-yl)Pyridin-2-Amine]
Ki [1]: 3 nM
IC50 [2]: 6 nM

COc1ccc(Nc2ncc(CN3CCN(C(=O)N(C)C)CC3)cc2-c2nc(C)nc3[nH]cnc23)cn1 [Example 87, 4-((6-(6-Methoxypyridin-3-Ylamino)-5-(2-Methyl-9H-Purin-6-yl)Pyridin-3-yl)Methyl)-N,N-Dimethylpiperazine-1-Carboxamide]
Ki [1]: 43 nM
IC50 [2]: 209 nM

COc1ccc(Nc2ncc(CN3CC(S(C)(=O)=O)C3)cc2-c2nc(C)nc(N)n2)cn1 [Example 223, 4-(2-(6-Methoxypyridin-3-Ylamino)-5-((3-(Methylsulfonyl)Azetidin-1-yl)Methyl)Pyridin-3-yl)-6-Methyl-1,3,5-Triazin-2-Amine]
Ki [1]: 6 nM
IC50 [2]: 28 nM

Cc1nc(N)nc(-c2cc(CN3CCOCC3)cnc2Nc2ccc3scnc3c2)n1 [Example 129, N-(3-(4-amino-6-methyl-1,3,5-triazin-2-yl)-5-(morpholinomethyl)pyridin-2-yl)benzo[d]thiazol-5-amine]
Ki [1]: 100 nM
IC50 [2]: 83 nM

COc1ccc(Nc2ncc(C(C)(C)N3CCN(S(C)(=O)=O)CC3)cc2-c2nc(C)nc(N)n2)cn1 [Example 279, 4-(2-(6-Methoxypyridin-3-Ylamino)-5-(2-(4-(Methylsulfonyl)Piperazin-1-yl)Propan-2-yl)Pyridin-3-yl)-6-Methyl-1,3,5-Triazin-2-Amine]
Ki [1]: 11 nM
IC50 [2]: 34 nM

COc1ccc(Nc2ncc(CNC(C)C)cc2-c2nc(C)nc3[nH]cnc23)cn1 [Example 135, 5-((isopropylamino)methyl)-N-(6-methoxypyridin-3-yl)-3-(2-methyl-9H-purin-6-yl)pyridin-2-amine]
Ki [1]: 120 nM
IC50 [2]: 435 nM

Cc1nc(N)nc(-c2cccnc2Nc2ccc(NC(=O)NC(C)C)nc2)n1 [Example 192, 1-(5-(3-(4-Amino-6-Methyl-1,3,5-Triazin-2-yl)Pyridin-2-Ylamino)Pyridin-2-yl)-3-Isopropylurea]
Ki [1]: 691 nM
IC50 [2]: 941 nM

Cc1nc(N)nc(-c2cc(CN3CCN(S(C)(=O)=O)CC3)cnc2Nc2ccc3ccncc3c2)n1 [Example 326, N-(3-(4-Amino-6-Methyl-1,3,5-Triazin-2-yl)-5-((4-(Methylsulfonyl)Piperazin-1-yl)Methyl)Pyridin-2-yl)Isoquinolin-7-Amine]
Ki [1]: 68 nM
IC50 [2]: 57 nM

COc1ccc(Nc2ncccc2-c2nc(C)nc(N)n2)cc1OC [Example 170, 4-(2-(3,4-Dimethoxyphenylamino)Pyridin-3-yl)-6-Methyl-1,3,5-Triazin-2-Amine]
Ki [1]: 560 nM
IC50 [2]: 596 nM

COc1ccc(Nc2ncc(C(C)c3ccc(S(C)(=O)=O)cc3)cc2-c2nc(C)nc(N)n2)cn1 (centres unmarked) [Example 149, 4-(2-(6-Methoxypyridin-3-Ylamino)-5-(1-(4-(Methylsulfonyl)Phenyl)Ethyl)Pyridin-3-yl)-6-Methyl-1,3,5-Triazin-2-Amine]
Ki [1]: 5 nM
IC50 [2]: 53 nM

Cc1nc(N)nc(-c2cc(CN3CCN(S(C)(=O)=O)CC3)cnc2Nc2ccc3ocnc3c2)n1 [Example 128, N-(3-(4-amino-6-methyl-1,3,5-triazin-2-yl)-5-((4-(methylsulfonyl)piperazin-1-yl)methyl)pyridin-2-yl)benzo[d]oxazol-5-amine]
Ki [1]: 7 nM
IC50 [2]: 21 nM

COc1ncc(Nc2ncc(C3CCOCC3)cc2-c2nc(C)nc(N)n2)cc1F [Example 344, 4-(2-(5-Fluoro-6-Methoxypyridin-3-Ylamino)-5-(Tetrahydro-2H-Pyran-4-yl)Pyridin-3-yl)-6-Methyl-1,3,5-Triazin-2-Amine]
Ki [1]: 5 nM
IC50 [2]: 14 nM

COc1ccc(Nc2nc(N)ncc2-c2nc(C)nc(N)n2)cn1 [Example 118, 5-(4-amino-6-methyl-1,3,5-triazin-2-yl)-N4-(6-methoxypyridin-3-yl)pyrimidine-2,4-diamine]
Ki [1]: 113 nM
IC50 [2]: 172 nM

Cc1nc(N)nc(-c2cc(CN3CCN(S(C)(=O)=O)CC3)cnc2Nc2cnc(O)c(F)c2)n1 [Example 161, 5-(3-(4-Amino-6-Methyl-1,3,5-Triazin-2-yl)-5-((4-(Methylsulfonyl)Piperazin-1-yl)Methyl)Pyridin-2-Ylamino)-3-Fluoropyridin-2-ol]
Ki [1]: 36 nM
IC50 [2]: 73 nM
